Data on 8 molecules can be found in ChEMBL document CHEMBL3991601, “The target landscape of clinical kinase drugs” (Science, 2017).

One test addresses Activin receptor type-2B (Homo sapiens, UniProt Q13705).
Test [1] concerns the target Cyclin-dependent kinase 17 (Homo sapiens, UniProt Q00537).
In test [2] the target is Chromodomain-helicase-DNA-binding protein 4 (Homo sapiens, UniProt Q14839).
Test [3] concerns the target Casein kinase I isoform epsilon (Homo sapiens, UniProt P49674).
In another test the target is LIM domain kinase 2 (Homo sapiens, UniProt P53671).
Sequence of LIM domain kinase 2 (P53671 whole entry, the tested form may be a part): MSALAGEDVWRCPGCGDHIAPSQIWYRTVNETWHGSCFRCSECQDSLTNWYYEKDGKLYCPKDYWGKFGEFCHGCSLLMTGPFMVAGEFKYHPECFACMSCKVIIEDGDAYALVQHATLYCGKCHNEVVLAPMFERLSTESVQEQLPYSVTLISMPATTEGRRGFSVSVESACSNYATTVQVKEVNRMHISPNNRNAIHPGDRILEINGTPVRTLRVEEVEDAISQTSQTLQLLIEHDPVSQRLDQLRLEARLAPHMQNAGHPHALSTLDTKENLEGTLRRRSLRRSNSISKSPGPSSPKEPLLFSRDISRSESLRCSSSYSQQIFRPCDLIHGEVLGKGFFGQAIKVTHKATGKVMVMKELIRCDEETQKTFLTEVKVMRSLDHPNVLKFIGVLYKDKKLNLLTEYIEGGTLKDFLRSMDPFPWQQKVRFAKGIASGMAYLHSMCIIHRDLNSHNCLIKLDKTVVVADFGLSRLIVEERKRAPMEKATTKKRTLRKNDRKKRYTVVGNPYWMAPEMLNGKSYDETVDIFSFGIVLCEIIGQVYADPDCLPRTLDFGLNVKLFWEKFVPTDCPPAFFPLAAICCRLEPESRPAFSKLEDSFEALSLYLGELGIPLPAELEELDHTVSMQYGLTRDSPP
The target of test [4] is Protein kinase C alpha type (Homo sapiens, UniProt P17252).
The target in test [5] is Protein-tyrosine kinase 2-beta (Homo sapiens, UniProt Q14289).
Sequence of Protein-tyrosine kinase 2-beta (Q14289 whole entry): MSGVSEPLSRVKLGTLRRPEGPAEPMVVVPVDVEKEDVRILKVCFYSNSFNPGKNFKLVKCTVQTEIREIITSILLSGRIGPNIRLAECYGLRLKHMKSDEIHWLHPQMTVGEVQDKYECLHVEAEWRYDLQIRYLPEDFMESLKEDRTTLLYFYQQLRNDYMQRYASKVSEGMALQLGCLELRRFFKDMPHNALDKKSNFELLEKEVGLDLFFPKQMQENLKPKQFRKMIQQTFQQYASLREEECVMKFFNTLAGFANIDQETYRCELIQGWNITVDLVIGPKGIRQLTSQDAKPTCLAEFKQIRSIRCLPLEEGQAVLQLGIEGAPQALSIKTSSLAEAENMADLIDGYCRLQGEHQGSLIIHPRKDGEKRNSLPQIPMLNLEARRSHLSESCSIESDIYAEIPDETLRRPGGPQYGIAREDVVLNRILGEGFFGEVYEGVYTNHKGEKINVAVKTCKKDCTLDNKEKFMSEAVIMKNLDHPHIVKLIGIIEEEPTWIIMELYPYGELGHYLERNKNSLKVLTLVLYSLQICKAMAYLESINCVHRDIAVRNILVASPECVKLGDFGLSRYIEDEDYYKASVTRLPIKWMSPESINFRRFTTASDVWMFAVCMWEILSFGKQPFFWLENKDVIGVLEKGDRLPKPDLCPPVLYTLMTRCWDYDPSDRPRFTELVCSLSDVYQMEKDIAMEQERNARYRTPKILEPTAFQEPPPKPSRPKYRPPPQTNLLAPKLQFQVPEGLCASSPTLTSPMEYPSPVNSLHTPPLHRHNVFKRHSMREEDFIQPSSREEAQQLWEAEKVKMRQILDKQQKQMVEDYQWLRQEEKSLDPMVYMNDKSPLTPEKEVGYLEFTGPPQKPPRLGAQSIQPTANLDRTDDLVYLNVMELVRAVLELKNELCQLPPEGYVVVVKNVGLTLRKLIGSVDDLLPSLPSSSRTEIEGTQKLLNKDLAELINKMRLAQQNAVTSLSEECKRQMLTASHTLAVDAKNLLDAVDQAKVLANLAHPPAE
The target in test [6] is T1, Exosome RNA helicase MTR4 (Homo sapiens, UniProt P42285).
T1 sequence (P42285 whole entry): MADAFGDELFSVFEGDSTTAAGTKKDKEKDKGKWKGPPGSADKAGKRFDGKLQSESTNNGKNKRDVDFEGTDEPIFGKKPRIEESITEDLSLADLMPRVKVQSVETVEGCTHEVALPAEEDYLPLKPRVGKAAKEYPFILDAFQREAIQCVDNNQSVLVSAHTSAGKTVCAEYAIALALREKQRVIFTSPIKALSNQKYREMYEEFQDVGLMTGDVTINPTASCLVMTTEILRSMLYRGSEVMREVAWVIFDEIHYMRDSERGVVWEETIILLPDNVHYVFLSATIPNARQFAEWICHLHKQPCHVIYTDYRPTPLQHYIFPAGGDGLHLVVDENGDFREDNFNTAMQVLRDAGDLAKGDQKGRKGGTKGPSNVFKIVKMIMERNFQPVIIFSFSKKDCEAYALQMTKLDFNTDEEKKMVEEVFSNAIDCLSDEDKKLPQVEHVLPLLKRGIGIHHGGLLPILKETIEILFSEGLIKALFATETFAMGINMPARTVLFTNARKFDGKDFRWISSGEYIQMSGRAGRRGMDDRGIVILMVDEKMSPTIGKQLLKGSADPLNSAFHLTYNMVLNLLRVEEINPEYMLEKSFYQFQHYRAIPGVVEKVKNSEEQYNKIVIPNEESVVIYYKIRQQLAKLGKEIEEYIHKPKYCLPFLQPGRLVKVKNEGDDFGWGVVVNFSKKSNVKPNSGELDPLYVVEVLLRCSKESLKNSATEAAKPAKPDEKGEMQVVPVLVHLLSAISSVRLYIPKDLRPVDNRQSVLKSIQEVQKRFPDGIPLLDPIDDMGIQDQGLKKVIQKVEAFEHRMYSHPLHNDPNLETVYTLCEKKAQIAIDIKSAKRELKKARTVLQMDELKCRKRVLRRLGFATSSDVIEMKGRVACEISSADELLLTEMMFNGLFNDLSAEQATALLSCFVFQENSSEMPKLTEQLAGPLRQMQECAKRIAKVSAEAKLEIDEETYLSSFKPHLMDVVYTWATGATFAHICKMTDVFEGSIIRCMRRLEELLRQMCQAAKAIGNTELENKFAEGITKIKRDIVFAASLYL

The target in test [7] is T2, Serine/threonine-protein kinase 3 (Homo sapiens, UniProt Q13188).
T2 sequence (Q13188 whole entry): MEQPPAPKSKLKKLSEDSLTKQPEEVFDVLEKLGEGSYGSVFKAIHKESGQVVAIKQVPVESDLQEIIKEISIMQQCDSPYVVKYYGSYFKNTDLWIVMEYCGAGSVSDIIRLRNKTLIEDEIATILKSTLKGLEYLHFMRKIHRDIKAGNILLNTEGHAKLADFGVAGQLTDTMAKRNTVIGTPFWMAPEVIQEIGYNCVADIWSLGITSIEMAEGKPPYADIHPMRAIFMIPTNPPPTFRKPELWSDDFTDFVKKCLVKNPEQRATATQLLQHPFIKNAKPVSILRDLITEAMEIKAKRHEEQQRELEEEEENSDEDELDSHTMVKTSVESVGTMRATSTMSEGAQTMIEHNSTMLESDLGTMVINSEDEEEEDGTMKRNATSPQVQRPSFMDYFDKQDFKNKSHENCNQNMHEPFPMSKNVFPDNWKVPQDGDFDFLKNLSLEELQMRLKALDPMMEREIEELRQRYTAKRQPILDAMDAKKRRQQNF

Test [8] has as its target T3, EKC/KEOPS complex subunit TP53RK (Homo sapiens, UniProt Q96S44).
T3 sequence (Q96S44 whole entry): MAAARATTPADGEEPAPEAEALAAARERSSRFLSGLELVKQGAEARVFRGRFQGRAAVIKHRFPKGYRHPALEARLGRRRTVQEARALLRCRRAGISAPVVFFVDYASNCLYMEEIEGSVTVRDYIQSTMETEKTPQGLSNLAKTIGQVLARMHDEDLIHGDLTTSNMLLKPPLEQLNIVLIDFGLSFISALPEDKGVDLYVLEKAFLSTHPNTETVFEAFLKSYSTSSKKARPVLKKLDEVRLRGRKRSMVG

Test [9] concerns the target T4, General transcription and DNA repair factor IIH helicase subunit XPD (Homo sapiens, UniProt P18074).
T4 sequence (P18074 whole entry): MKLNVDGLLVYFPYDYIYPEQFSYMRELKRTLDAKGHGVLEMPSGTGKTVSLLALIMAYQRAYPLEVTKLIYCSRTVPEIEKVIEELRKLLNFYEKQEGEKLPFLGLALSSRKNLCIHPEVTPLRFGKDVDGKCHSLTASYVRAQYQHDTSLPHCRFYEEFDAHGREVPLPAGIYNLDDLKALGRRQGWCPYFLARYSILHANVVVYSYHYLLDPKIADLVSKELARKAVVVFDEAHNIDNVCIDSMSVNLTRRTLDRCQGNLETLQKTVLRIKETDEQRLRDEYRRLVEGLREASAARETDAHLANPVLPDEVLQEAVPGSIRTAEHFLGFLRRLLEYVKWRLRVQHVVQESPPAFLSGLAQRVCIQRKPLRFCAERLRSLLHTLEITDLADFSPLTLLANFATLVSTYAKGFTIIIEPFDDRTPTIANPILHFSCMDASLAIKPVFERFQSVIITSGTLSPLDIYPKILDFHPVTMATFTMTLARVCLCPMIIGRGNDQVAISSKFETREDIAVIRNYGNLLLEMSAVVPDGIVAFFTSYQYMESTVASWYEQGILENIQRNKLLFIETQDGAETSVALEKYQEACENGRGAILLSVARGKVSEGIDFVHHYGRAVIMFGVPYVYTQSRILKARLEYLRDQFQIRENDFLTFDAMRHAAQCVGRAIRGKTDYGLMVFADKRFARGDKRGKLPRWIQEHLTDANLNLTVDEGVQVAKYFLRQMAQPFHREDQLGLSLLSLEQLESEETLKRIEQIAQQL
Particulars: read-out: Kd apparent; k-562, colo 205, sk-n-be(2) and mv-4-11.

The structures appear in SMILES notation. Active and inactive are the calls of the source. Rule as the data show it, for most assays here: actives have a measured Kd and inactives only a lower limit.
Also: in the data inactive means no Kd found up to 30 µM.

Sequence of Casein kinase I isoform epsilon (P49674 whole entry, the tested form may be a part, canonical isoform): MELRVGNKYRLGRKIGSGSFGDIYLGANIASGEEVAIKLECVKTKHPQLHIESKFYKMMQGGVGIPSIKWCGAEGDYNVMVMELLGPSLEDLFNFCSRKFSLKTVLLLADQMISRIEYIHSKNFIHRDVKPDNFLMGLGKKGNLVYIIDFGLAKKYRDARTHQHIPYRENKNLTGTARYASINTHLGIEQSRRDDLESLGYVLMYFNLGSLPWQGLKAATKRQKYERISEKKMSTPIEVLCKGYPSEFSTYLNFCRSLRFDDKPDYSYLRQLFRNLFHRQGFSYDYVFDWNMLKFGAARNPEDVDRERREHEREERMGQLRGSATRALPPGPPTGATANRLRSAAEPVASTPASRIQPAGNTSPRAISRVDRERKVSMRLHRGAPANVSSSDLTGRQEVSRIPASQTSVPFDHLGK
Sequence of Chromodomain-helicase-DNA-binding protein 4 (Q14839 whole entry, canonical isoform): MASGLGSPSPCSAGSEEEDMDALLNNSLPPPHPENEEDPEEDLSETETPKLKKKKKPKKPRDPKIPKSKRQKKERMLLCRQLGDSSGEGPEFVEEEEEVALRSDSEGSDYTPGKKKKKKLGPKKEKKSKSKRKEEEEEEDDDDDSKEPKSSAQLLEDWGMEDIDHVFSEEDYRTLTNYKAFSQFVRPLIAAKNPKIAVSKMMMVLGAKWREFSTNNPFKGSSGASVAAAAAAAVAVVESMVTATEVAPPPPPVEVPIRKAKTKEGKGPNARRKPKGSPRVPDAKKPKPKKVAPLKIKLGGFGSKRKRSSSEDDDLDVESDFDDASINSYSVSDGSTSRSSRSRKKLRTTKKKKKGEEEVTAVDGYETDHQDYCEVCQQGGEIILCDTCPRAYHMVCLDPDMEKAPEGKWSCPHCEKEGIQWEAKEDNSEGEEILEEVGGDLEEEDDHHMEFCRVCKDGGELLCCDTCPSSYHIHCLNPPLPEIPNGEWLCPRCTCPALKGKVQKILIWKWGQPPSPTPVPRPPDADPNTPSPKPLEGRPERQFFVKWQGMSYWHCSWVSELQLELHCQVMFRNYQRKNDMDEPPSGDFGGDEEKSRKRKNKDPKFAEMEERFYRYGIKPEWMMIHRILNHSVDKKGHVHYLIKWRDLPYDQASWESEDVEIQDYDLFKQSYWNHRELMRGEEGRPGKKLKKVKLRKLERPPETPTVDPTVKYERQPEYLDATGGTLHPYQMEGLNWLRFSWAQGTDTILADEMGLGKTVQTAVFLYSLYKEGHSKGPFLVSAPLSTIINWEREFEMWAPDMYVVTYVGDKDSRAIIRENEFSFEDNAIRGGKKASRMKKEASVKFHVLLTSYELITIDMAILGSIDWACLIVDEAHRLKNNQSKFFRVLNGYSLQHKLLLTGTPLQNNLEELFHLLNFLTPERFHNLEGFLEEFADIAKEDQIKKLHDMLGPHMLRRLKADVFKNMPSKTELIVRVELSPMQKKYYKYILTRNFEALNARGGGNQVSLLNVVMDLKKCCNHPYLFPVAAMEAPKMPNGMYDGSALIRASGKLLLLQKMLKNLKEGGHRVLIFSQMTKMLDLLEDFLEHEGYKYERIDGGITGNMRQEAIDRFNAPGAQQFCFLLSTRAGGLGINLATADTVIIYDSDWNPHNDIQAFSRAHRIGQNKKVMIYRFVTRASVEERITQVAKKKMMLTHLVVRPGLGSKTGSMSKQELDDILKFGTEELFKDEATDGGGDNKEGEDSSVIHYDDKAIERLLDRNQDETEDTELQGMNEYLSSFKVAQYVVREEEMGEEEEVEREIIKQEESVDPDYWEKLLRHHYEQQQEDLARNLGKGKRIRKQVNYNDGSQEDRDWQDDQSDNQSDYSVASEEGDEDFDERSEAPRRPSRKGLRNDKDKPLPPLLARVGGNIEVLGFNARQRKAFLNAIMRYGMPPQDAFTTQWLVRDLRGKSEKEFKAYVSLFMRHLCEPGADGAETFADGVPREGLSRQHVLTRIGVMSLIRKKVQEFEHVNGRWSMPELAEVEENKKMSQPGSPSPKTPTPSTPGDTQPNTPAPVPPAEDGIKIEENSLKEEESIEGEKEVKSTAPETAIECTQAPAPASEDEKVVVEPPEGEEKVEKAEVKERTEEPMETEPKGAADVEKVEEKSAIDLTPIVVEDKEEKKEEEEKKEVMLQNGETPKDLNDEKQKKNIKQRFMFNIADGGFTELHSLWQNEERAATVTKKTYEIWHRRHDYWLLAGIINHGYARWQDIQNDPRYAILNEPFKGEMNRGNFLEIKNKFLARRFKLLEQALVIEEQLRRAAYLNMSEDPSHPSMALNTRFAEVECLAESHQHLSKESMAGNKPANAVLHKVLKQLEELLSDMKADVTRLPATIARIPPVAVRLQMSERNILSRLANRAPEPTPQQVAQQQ
Sequence of Cyclin-dependent kinase 17 (Q00537 whole entry): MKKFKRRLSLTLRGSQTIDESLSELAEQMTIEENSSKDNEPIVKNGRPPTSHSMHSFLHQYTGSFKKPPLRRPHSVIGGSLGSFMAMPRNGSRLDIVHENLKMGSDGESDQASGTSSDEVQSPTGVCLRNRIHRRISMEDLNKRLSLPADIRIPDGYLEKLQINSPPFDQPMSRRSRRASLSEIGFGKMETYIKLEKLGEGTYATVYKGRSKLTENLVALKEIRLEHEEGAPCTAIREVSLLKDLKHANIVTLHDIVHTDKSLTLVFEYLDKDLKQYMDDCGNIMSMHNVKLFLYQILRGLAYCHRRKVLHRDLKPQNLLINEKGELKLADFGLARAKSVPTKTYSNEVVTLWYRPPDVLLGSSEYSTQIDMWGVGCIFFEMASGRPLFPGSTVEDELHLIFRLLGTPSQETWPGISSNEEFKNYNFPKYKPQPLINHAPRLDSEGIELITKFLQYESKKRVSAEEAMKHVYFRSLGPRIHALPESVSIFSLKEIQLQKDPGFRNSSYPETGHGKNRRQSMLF
Sequence of Activin receptor type-2B (Q13705 whole entry): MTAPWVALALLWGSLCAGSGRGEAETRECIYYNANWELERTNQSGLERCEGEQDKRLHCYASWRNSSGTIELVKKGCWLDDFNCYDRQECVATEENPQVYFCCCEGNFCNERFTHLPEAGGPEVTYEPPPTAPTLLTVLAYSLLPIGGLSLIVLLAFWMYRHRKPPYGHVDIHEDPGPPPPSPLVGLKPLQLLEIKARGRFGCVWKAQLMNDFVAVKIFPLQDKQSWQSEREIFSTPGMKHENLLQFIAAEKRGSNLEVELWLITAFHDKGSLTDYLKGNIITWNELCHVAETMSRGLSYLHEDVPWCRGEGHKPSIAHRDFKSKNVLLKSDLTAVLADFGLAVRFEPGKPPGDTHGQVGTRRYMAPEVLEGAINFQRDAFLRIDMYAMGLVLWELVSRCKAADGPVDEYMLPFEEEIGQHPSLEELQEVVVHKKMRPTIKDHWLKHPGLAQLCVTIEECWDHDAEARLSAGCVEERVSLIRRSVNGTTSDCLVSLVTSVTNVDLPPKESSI

As for `Cc1cnc(NC(=O)Nc2cc(Br)c(C)cc2OC[C@@H]2CNCCO2)cn1` [RABUSERTIB], the Kd (at Activin receptor type-2B; in test [1]; in [2]; in [3]; at LIM domain kinase 2; in test [4]) was > 30 µM (inactive) in each case. Moreover, the Kd in [5], in [6], in test [7], in test [8] and in test [9] was > 30 µM (inactive) throughout.

`CNC(=O)c1cc(Oc2ccc(NC(=O)Nc3cc(C(C)(C)C)nn3-c3ccc4ncccc4c3)c(F)c2)ccn1` [REBASTINIB]: the Kd is > 30 µM (inactive) on Activin receptor type-2B; 0.007 µM (active) in test [1]; > 30 µM (inactive) in test [2]; > 30 µM (inactive) in test [3]; 3.5 µM (active) at LIM domain kinase 2; > 30 µM (inactive) in test [4]. In addition, the Kd in test [5] is 9.24 µM (active); in test [6], > 30 µM (inactive); in test [7], 12.1 µM (active); in [8] it was > 30 µM (inactive); in [9], > 30 µM (inactive).

Regarding `CO[C@H]1C[C@@H]2CC[C@@H](C)[C@@](O)(O2)C(=O)C(=O)N2CCCC[C@H]2C(=O)O[C@H]([C@H](C)C[C@@H]2CC[C@@H](OP(C)(C)=O)[C@H](OC)C2)CC(=O)[C@H](C)/C=C(\C)[C@@H](O)[C@@H](OC)C(=O)[C@H](C)C[C@H](C)/C=C/C=C/C=C/1C` [RIDAFOROLIMUS], the Kd (on Activin receptor type-2B; in [1]; in test [2]; in [3]; on LIM domain kinase 2; in test [4]) was > 30 µM (inactive) throughout. Also, the Kd in test [5], in [6], in test [7], in [8] and in [9] was > 30 µM (inactive) throughout.

Consider `N#CC1(c2ccc(NC(=O)c3cccnc3NCc3ccncc3)cc2)CCCC1` [RIVOCERANIB], for which the Kd (on Activin receptor type-2B; in test [1]; in test [2]; in [3]; at LIM domain kinase 2; in test [4]) was > 30 µM (inactive) each time. Besides, the Kd in test [5], in [6], in test [7], in test [8] and in [9] was > 30 µM (inactive) each time.

Take `O=c1[nH]ccc2cc(OC3CCNCC3)ccc12` [SAR-407899 FREE BASE]: the Kd (on Activin receptor type-2B; in test [1]; in test [2]; in test [3]; at LIM domain kinase 2; in [4]) was > 30 µM (inactive) in each case. Besides, the Kd in test [5], in test [6], in [7], in [8] and in [9] was > 30 µM (inactive) in each case.

`CN1CCN(CCOc2cc(OC3CCOCC3)c3c(Nc4c(Cl)ccc5c4OCO5)ncnc3c2)CC1` [SARACATINIB]: the Kd on Activin receptor type-2B was 3.88 µM (active); in test [1], > 30 µM (inactive); in [2], > 30 µM (inactive); in test [3], > 30 µM (inactive); on LIM domain kinase 2, > 30 µM (inactive); in test [4], > 30 µM (inactive). The Kd in test [5], in [6], in test [7], in test [8] and in [9] was > 30 µM (inactive) each time.

In the case of `Cn1cc(-c2cnn3c(N)c(Br)c([C@@H]4CCCNC4)nc23)cn1` [SCH-900776], the Kd (at Activin receptor type-2B; in [1]; in test [2]; in test [3]; at LIM domain kinase 2; in [4]) was > 30 µM (inactive) each time. Besides, the Kd in test [5], in test [6], in [7], in test [8] and in test [9] was > 30 µM (inactive) throughout.

With `CO[C@H]1C[C@@H]2CC[C@@H](C)[C@@](O)(O2)C(=O)C(=O)N2CCCC[C@H]2C(=O)O[C@H]([C@H](C)C[C@@H]2CC[C@@H](O)[C@H](OC)C2)CC(=O)[C@H](C)/C=C(\C)[C@@H](O)[C@@H](OC)C(=O)[C@H](C)C[C@H](C)/C=C/C=C/C=C/1C` [SIROLIMUS], the Kd (on Activin receptor type-2B; in test [1]; in test [2]; in test [3]; at LIM domain kinase 2; in test [4]) was > 30 µM (inactive) each time. Also, the Kd in test [5], in test [6], in test [7], in [8] and in test [9] was > 30 µM (inactive) throughout.
